From ChEMBL document CHEMBL1201862, “PubChem BioAssay data set” (2004)
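Compound exposure: 48 hours, 5 concentrations, 96-well plates. Here, GI50 denotes the concentration required for 50% inhibition of growth.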 Active and inactive are the calls of the source. Rule as the data show it: active = GI50 up to about 1.1 µM and inactive = higher.

What was measured:
Assay in all cases: NCI anticancer screen, dose series, 48 h
[1] = system: DMS-273
[2] = system: NCI-H226
[3] = system: KM-20L2
[4] = system: UACC-62
[5] = system: UO-31
[6] = system: SK-MEL-2
[7] = system: OVCAR-3
[8] = system: LOX IMVI
[9] = system: CCRF-CEM
[10] = system: SN12C
[11] = system: NCI-H522
[12] = system: SK-MEL-28
[13] = system: HCT-15
[14] = system: MOLT-4
[15] = system: IGROV-1
[16] = system: HCC 2998
[17] = system: SF-539
[18] = system: SF-268
[19] = system: NCI-H23
[20] = system: A549
[21] = system: LXFL 529
[22] = system: M14
[23] = system: HOP-92
[24] = system: HCT-116
[25] = system: EKVX
[26] = system: SF-295
[27] = system: U-251
[28] = system: SR
[29] = system: A498
[30] = system: OVCAR-5
[31] = system: RXF 393
[32] = system: XF498
[33] = system: ACHN
[34] = system: HOP-62
[35] = system: K562
[36] = system: SK-MEL-5
[37] = system: DMS-114
[38] = system: SNB-78
[39] = system: SK-OV-3
[40] = system: HL-60
[41] = system: SNB-19
[42] = system: M19-MEL
[43] = system: OVCAR-8
[44] = system: 786-0
[45] = system: UACC-257
[46] = system: DLD-1
[47] = system: NCI-H460
[48] = system: Malme-3M
[49] = system: COLO 205
[50] = system: TK-10
[51] = system: SW-620
[52] = system: SNB-75
[53] = system: HT-29
[54] = system: OVCAR-4
[55] = system: RPMI-8226
[56] = system: KM12
[57] = system: CAKI-1

Measured: GI50

NC(CCCCN/C=C1/N=C(c2ccccc2)OC1=O)C(=O)O (stereo not drawn)
> 100 µM: [13]
inactive: [1] > 100 µM | [2] > 100 µM | [3] > 100 µM | [4] > 100 µM | [5] > 100 µM | [6] > 100 µM | [7] > 100 µM | [8] > 100 µM | [9] 52 µM | [10] > 100 µM | [11] 26.1 µM | [12] > 100 µM | [14] > 100 µM | [15] > 100 µM | [16] > 100 µM | [17] > 100 µM | [18] > 100 µM | [19] > 100 µM | [20] > 100 µM | [21] > 100 µM | [22] > 100 µM | [23] > 100 µM | [24] > 100 µM | [25] > 100 µM | [26] > 100 µM | [27] > 100 µM | [28] > 100 µM | [29] > 100 µM | [30] > 100 µM | [31] > 100 µM | [32] > 100 µM | [33] > 100 µM | [34] > 100 µM | [35] 53.6 µM | [36] > 100 µM | [37] > 100 µM | [38] > 100 µM | [39] > 100 µM | [40] > 100 µM | [41] > 100 µM | [42] > 100 µM | [43] > 100 µM | [44] > 100 µM | [45] > 100 µM | [46] > 100 µM | [47] > 100 µM | [48] > 100 µM | [49] > 100 µM | [50] > 100 µM | [51] > 100 µM | [52] > 100 µM | [53] > 100 µM | [54] > 100 µM | [55] > 100 µM

O=C1CNS(=O)(=O)N1
inactive: [1] > 100 µM | [2] 14.5 µM | [4] > 100 µM | [5] > 100 µM | [6] > 100 µM | [7] > 100 µM | [9] > 100 µM | [10] > 100 µM | [11] > 100 µM | [12] > 100 µM | [14] > 100 µM | [15] > 100 µM | [16] > 100 µM | [17] > 100 µM | [18] > 100 µM | [19] > 100 µM | [20] > 100 µM | [21] > 100 µM | [22] > 100 µM | [23] > 100 µM | [24] > 100 µM | [25] > 100 µM | [26] > 100 µM | [28] > 100 µM | [29] > 100 µM | [56] > 100 µM | [32] > 100 µM | [34] > 100 µM | [35] > 100 µM | [37] > 100 µM | [38] > 100 µM | [39] > 100 µM | [40] > 100 µM | [41] > 100 µM | [42] > 100 µM | [43] > 100 µM | [44] > 100 µM | [45] > 100 µM | [46] > 100 µM | [48] > 100 µM | [49] > 100 µM | [50] > 100 µM | [51] > 100 µM | [52] > 100 µM | [57] > 100 µM | [53] > 100 µM | [54] > 100 µM | [55] > 100 µM
